According to US20100152297A1, “COMPOSITION FOR REGULATING CELLULAR SENESCENCE COMPRISING N-[2-(CYCLOHEXY-LOXYL)-4-NITROPHENYL]-METHANESULFONAMIDE” (priority 2007, published 2010):
Entries after “also recorded” stand apart in the source; their conditions may differ.

Experiments:
caveolin-1 = assay: Western blot, caveolin-1 expression; format: cell-based, human; conditions: for expression of caveolin-1: cells cultured with inhibitor, harvested at each passage; for expression of caveolin-1, short treatment: short period of time (NS-398: 4 hours)
Experimental: (§1) In order to examine the effects of COX-2 inhibitors on cellular senescence, cells were cultured and treated in the same manner as in Example 2, and then subjected to Western blot. The cultured cells were washed and collected in PBS, and then were disrupted in RIPA buffer (150 mM NaCl, 100 mM Tris-HCl, 1% Tween-20, 1% sodium deoxycholate and 0.1% SDS), containing 0.5 mM EDTA, 1 mM PMSF, 10 μg/ml leupeptin, 10 μg/ml aprotinin and 10 μg/ml pepstatin. The disrupted cells were centrifuged, and the supernatant was collected. Proteins in the cell extract were isolated by SDS-PAGE and transferred to nitrocellulose membranes. Then, the proteins were allowed to react with each of p53, p21, COX-1, COX-2 and caveolin-1 antibodies, and the protein-antibody complexes on the nitrocellulose membranes were allowed to react with peroxidase-conjugated anti-mouse or anti-rabbit secondary antibody. Then, the corresponding bands were visualized by chemiluminescence (Amersham Bioscience, Boston, Mass.) using an ECL kit. Herein, the antibodies for p53, p21 and COX-1 were purchased from Oncogene Science (Cambridge, Mass.), Cell Signaling Technology, Inc. (Danvers, Mass.), and Santa Cruz Biotechnology (Santa Cruz, Calif.), respectively, and the antibodies for COX-2 and cavelolin-1 were purchased from BD Bioscience (San Jose, Calif.). Also, β-actin was used as an intracellular control protein to correct the amount of the intracellular total protein.

human fibroblasts [1] = assay: Regulation of growth rate: number of population doublings (PDs); format: cell-based; conditions: for effect on cellular senescence: conclusion from population doublings and SA-β-gal staining; for reduction of the maximum number of population doublings compared to DMSO: celecoxib 1 μM, nimesulide 20 μM, aspirin 1 mM, ibuprofen 20 μM, flurbiprofen 5 μM
Experimental: According to the literature of Boyce and Ham (1983), human fibroblasts were isolated from foreskin, and then cultured in a DMEM medium, containing 10% fetal bovine serum (Life Technology Inc., Grand Island, N.Y.), penicillin (100 units/ml) and streptomycin (100 units/ml)). […] Then, the number of the cells was calculated by trypan blue staining, and the number of population doublings (PDs) of the cells was calculated according to the following equation 1: Number of population doublings (PDs)=log(A/B)/log2 [Math Figure 1] wherein A is the number of cells harvested at one passage, and B is the initial cell number at that passage.

[2] = system: SOD-2 (superoxide dismutase-2); assay: Western blot, SOD-2 expression; format: cell-based, human; conditions: P28 cells cultured in the presence of inhibitor
[3] = system: Gpx-1 (glutathione peroxidase-1); assay: Western blot, Gpx-1 expression; format: cell-based, human; conditions: P28 cells cultured in the presence of inhibitor
human promonocytes = conditions: reference 25; cited from earlier work
p21 = assay: Western blot, p21 expression; format: cell-based, human; conditions: cells cultured with inhibitor, harvested at each passage
Experimental: as §1, with “Also, β-actin was used as an intracellular control protein to correct the amount of the intracellular total protein.” left out

collagen = conditions: fibroblasts and hepatic stellate cells; references 24 and 36; cited from earlier work
caveolin-1 mRNA = assay: RT-PCR, caveolin-1 mRNA; format: cell-based, human; conditions: corrected with GAPDH
Experimental: In order to examine the effects of COX-2 inhibitors on cellular senescence, cells were cultured and treated in the same manner as in Example 2, and then subjected to RT-PCR. […] The cavelolin-1 gene was amplified using a sense primer ([NT]) and an anti-sense primer ([NT]), and the GAPDH gene was amplified using a sense primer ([NT]) and an anti-sense primer ([NT]). The polymerase chain reaction was performed in the following conditions: 25 cycles of 30 sec at 95 t, 30 sec at 60° C. and 30 sec at 72° C. The resulting DNA products were electrophoresed on 2% agarose gel containing EtBr.

catalase = assay: Western blot, catalase expression; format: cell-based, human; conditions: P28 cells cultured in the presence of inhibitor
p53 = assay: Western blot, p53 expression; format: cell-based, human; conditions: cells cultured with inhibitor, harvested at each passage
Experimental: In order to examine the effects of COX-2 inhibitors on cellular senescence, cells were cultured and treated in the same manner as in Example 2, and then subjected to Western blot. The cultured cells were washed and collected in PBS, and then were disrupted in RIPA buffer (150 mM NaCl, 100 mM Tris-HCl, 1% Tween-20, 1% sodium deoxycholate and 0.1% SDS), containing 0.5 mM EDTA, 1 mM PMSF, 10 μg/ml leupeptin, 10 μg/ml aprotinin and 10 μg/ml pepstatin. The disrupted cells were centrifuged, and the supernatant was collected. Proteins in the cell extract were isolated by SDS-PAGE and transferred to nitrocellulose membranes. Then, the proteins were allowed to react with each of p53, p21, COX-1, COX-2 and caveolin-1 antibodies, and the protein-antibody complexes on the nitrocellulose membranes were allowed to react with peroxidase-conjugated anti-mouse or anti-rabbit secondary antibody. Then, the corresponding bands were visualized by chemiluminescence (Amersham Bioscience, Boston, Mass.) using an ECL kit. Herein, the antibodies for p53, p21 and COX-1 were purchased from Oncogene Science (Cambridge, Mass.), Cell Signaling Technology, Inc. (Danvers, Mass.), and Santa Cruz Biotechnology (Santa Cruz, Calif.), respectively, and the antibodies for COX-2 and cavelolin-1 were purchased from BD Bioscience (San Jose, Calif.). […]

reactive oxygen species = assay: Measurement of reactive oxygen species with DCFH-DA; format: cell-based, human; conditions: treated for a long period of time (65 days), P29
Experimental: In order to examine the effects of COX-2 inhibitors on cellular senescence, cells were cultured and treated in the same manner as in Example 2, and reactive oxygen in the cells was then measured. The cultured cells were treated with 5 μM DCFH-DA (Invitrogen, Carlsbad, Calif.), and the cells were incubated at 37 C for 45 minutes and then washed with PBS. The washed cells were collected in 1 ml PBS, and then disrupted with ultrasonic waves. The fluorescence of the cells was measured with a fluorescence spectrophotometer (Molecular Devices, Sunnyvale, Calif.), and the measured fluorescence value was corrected with the cell number.

total cholesterol = assay: Analysis of intracellular total cholesterol; format: cell-based, human; conditions: corrected with protein concentration
Experimental: In order to examine the effects of COX-2 inhibitors on cellular senescence, cells were cultured and treated in the same manner as in Example 2, and then analyzed for cholesterol. 2×10^6 cells were treated with a mixture of chloroform and methanol (2:1) to extract a fatty component. The amount of total cholesterol in the fatty component was measured at 570 nm using a staining method according to the manual of BioVision (Mountain View, Calif.), and the measured values were corrected with the protein concentration.

Drosophila = conditions: long-term administration; reference 15; cited from earlier work
human fibroblasts [4] = assay: Senescence-associated beta-galactosidase (SA-β-gal) staining; format: cell-based; conditions: celecoxib 1 μM, nimesulide 20 μM, aspirin 1 mM, ibuprofen 20 μM, flurbiprofen 5 μM
Experimental: Herein, the senescence-associated β-galactosidase (SA-β-gal) staining was performed in the following manner according to the method of Dimri et al. (1995) (17). […] The cultured cells were seeded on a 35 mm dish, and then stabilized. Then, the cells were washed twice with PBS and fixed with 3% formaldehyde at room temperature for 5 minutes. […] During the progression of the reaction, light was blocked. […] The experiment was independently repeated twice, and the mean value and standard deviation of the measurements were calculated.

[5] = system: human vascular endothelial cells; conditions: reference 16; cited from earlier work

CS(=O)(=O)Nc1ccc([N+](=O)[O-])cc1OC1CCCCC1 [NS-398, N-[2-(cyclohexyloxyl)-4-nitrophenyl]-methanesulfonamide]
expression of caveolin-1 (caveolin-1): inhibited the expression of caveolin-1 at all passages
expression of caveolin-1, short treatment (caveolin-1): clearly inhibited
increase of the maximum number of population doublings compared to DMSO (human fibroblasts [1]; PD 24 before treatment, NS-398 20 μM): 7 times
effect on cellular senescence (human fibroblasts [1]): inhibited cellular senescence; also recorded: strongly inhibits cellular senescence
expression of SOD-2 [2]: reduced
expression of Gpx-1 [3]: increased
reactive oxygen species in human promonocytes (human promonocytes): remove reactive oxygen species
expression of p21 (p21): inhibited
expression of collagen (collagen): increased
mRNA level of caveolin-1 (caveolin-1 mRNA): reduced
expression of catalase (catalase): reduced
expression of p53 (p53): without inhibiting
reduction of the level of reactive oxygen species (reactive oxygen species): three
intracellular total cholesterol concentration (total cholesterol): reduced

CC(=O)Oc1ccccc1C(=O)O [aspirin, acetylsalicylic acid]
reduction of the maximum number of population doublings compared to DMSO (human fibroblasts [1]; PD 24 before treatment): 7 times
effect on cellular senescence (human fibroblasts [1]): promoted cellular senescence
average lifespan of Drosophila (Drosophila): led to a decrease in the average lifespan of the Drosophila or had no effect on the average lifespan
increase of the ratio of SA-β-gal positive cells compared to DMSO (human fibroblasts [4]): 1.9 times
effect on senescence in human vascular endothelial cells [5]: inhibited senescence

CC(C(=O)O)c1ccc(-c2ccccc2)c(F)c1 (stereo not shown) [flurbiprofen]
reduction of the maximum number of population doublings compared to DMSO (human fibroblasts [1]; PD 24 before treatment): 4 times
effect on cellular senescence (human fibroblasts [1]): promoted cellular senescence
increase of the ratio of SA-β-gal positive cells compared to DMSO (human fibroblasts [4]): 1.6 times

Cc1ccc(-c2cc(C(F)(F)F)nn2-c2ccc(S(N)(=O)=O)cc2)cc1 [celecoxib]
increase of the level of reactive oxygen species (reactive oxygen species): 1.2 times

CC(C)Cc1ccc(C(C)C(=O)O)cc1 (stereo not shown) [ibuprofen]
reduction of the maximum number of population doublings compared to DMSO (human fibroblasts [1]; PD 24 before treatment): 5 times
effect on cellular senescence (human fibroblasts [1]): promoted cellular senescence
increase of the ratio of SA-β-gal positive cells compared to DMSO (human fibroblasts [4]): 1.7 times

CS(=O)(=O)Nc1ccc([N+](=O)[O-])cc1Oc1ccccc1 [nimesulide]
expression of caveolin-1 (caveolin-1): increased
expression of caveolin-1, short treatment (caveolin-1): did not significantly change
reduction of the maximum number of population doublings compared to DMSO (human fibroblasts [1]; PD 24 before treatment): two
effect on cellular senescence (human fibroblasts [1]): promoted cellular senescence
increase of the ratio of SA-β-gal positive cells compared to DMSO (human fibroblasts [4]): 1.3 times
expression of SOD-2 [2]: reduced
expression of Gpx-1 [3]: reduced
reactive oxygen species in human promonocytes (human promonocytes): remove reactive oxygen species
expression of p21 (p21): increased
mRNA level of caveolin-1 (caveolin-1 mRNA): increased
expression of catalase (catalase): reduced
expression of p53 (p53): increased
increase of the level of reactive oxygen species (reactive oxygen species): 1.2 times
intracellular total cholesterol concentration (total cholesterol): increased

O=C(O)c1ccccc1O [salicylic acid]
average lifespan of Drosophila (Drosophila): led to a decrease in the average lifespan of the Drosophila or had no effect on the average lifespan

COc1ccc2c(c1)c(CC(=O)O)c(C)n2C(=O)c1ccc(Cl)cc1 [indomethacin]
average lifespan of Drosophila (Drosophila): led to a decrease in the average lifespan of the Drosophila or had no effect on the average lifespan
effect on senescence in human vascular endothelial cells [5]: promoted senescence
